From patent US10323016B2, “Imidazol- or 1,2,4-triazol-derivatives and their use” (UNIVERSITE DE LILLE 2 DROIT ET SANTE, priority 2014, dated 2019)

Legend:
hTGR5 = hTGR5 (Homo sapiens (Human), UniProt Q8TDU6); assay: TGR5/CRE Luciferase Assay (hTGR5); type: cell-based; conditions: for EC50: HEK 293 cells transiently co-transfected with pCMV tag4b-TGR5h and pCRE TA-Luciferase reporter, overnight incubation; for hTGR5 % trans: HEK 293 luciferase reporter, percentage of the 10 μM LCA value
Procedure: (§1) TGR5/CRE Luciferase Assay
(§2) In the following tables TGR5 activation by compounds and subsequent increase in intracellular cAMP were evaluated using a luciferase reporter gene assay. Human embryonic kidney (HEK) 293 cells were transiently co-transfected with pCMV tag4b-TGR5 h (to follow hTGR5 activation) or pCMV AC6-TGR5m (to follow mTGR5 activation) expression plasmids and the pCRE TA-Luciferase reporter plasmid using the JET PEI reagent (Polyplus transfection). Transfected cells were seeded in 96-well plates and incubated overnight with the test compounds at increasing concentrations tested in duplicate. Lithocolic acid (LCA) at 10 μM was used as a positive reference compound. The cAMP-dependent luciferase expression was followed using the BrightGlo reagent according to the manufacturer (Promega) instructions. Luminescence was read with a Mithras plate reader (Berthold). […] Concentration-response curves were fitted by a nonlinear regression analysis to a 4 parameter logistic equation.

mTGR5 = mTGR5 (Mus musculus (Mouse), UniProt Q80SS6); assay: TGR5/CRE Luciferase Assay (mTGR5); type: cell-based; conditions: for EC50: HEK 293 cells transiently co-transfected with pCMV AC6-TGR5m and pCRE TA-Luciferase reporter, overnight incubation; for mTGR5 % trans: HEK 293 luciferase reporter, percentage of the 10 μM LCA value
Chain of mTGR5 (Q80SS6 whole entry): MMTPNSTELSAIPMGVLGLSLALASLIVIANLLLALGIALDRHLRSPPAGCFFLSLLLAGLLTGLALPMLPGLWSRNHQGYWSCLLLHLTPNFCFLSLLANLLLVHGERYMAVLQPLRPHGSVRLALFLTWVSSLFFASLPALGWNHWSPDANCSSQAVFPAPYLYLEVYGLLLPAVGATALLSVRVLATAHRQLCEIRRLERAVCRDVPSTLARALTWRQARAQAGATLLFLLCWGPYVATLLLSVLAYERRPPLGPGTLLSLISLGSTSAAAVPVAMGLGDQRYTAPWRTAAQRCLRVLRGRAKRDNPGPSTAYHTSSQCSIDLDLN
Procedure: as §1, §2

Chain of hTGR5 (Q8TDU6 whole entry): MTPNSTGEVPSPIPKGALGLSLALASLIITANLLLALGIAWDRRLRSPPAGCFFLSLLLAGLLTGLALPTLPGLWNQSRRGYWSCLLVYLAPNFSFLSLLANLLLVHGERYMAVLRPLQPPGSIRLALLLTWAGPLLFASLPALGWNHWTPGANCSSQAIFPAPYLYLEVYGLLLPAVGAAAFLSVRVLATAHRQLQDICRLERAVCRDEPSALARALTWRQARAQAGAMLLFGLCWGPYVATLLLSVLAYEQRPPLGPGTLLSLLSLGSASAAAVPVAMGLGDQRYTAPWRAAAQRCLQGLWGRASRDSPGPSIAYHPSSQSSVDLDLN

Row | Substance | EC50 (hTGR5) [µM] | hTGR5 % trans (hTGR5) [%] | EC50 (mTGR5) [µM] | mTGR5 % trans (mTGR5) [%]
1 | [2-[2,6-Difluoro-4-(2-methoxy-polyethyleneglycoxy)-benzylsulfanyl]-3-(4-fluoro-3-methoxy-phenyl)-3H-imidazol-4-yl]-(3,4-dimethoxy-phenyl)-methyl-amine [Example 23] | 0.33 | 103 | 0.026 | 108
2 | [2-[2,6-Difluoro-4-(2-methoxy-polyethyleneglycoxy)-benzylsulfanyl]-3-(4-fluoro-phenyl)-3H-imidazol-4-yl]-(3,4-dimethoxy-phenyl)-methyl-amine [Example 9] | 0.16 | 85 | 0.018 | 98
3 | [2-[2,6-Difluoro-4-(2-methoxy-polyethyleneglycoxy)-benzylsulfanyl]-3-(4-fluoro-phenyl)-3H-imidazol-4-yl]-(3,4-dimethoxy-phenyl)-methyl-amine [Example 22] | 0.58 | 60 | 0.029 | 85
4 | [2-[2,6-Difluoro-4-(2-methoxy-polyethyleneglycoxy)-benzylsulfanyl]-3-(4-fluorophenyl)-3H-imidazol-4-yl]-(3,4-dimethoxy-phenyl)-methyl-amine [Example 24] | 1.2 | 71 | 0.068 | 126
